From paper PMC10057980, “Pharmacokinetics of Orally Applied Cannabinoids and Medical Marijuana Extracts in Mouse Nervous Tissue and Plasma: Relevance for Pain Treatment” (Pharmaceutics, 2023)

Tests used:
[1] = design: method as in PMID 21796370; settings: CBD orally given to mice; cited from earlier work
[2] = tested on: mechanical hypersensitivity in spared nerve injury (SNI) mice; experiment: Von Frey mechanical thresholds in the spared nerve injury (SNI) model; type: in vivo, C57BL/6J mice; settings: day 7 after surgery, single oral dose: 20 mg/kg pure CBD or THC, 40 mg/kg THC+ extract, 1560 mg/kg THC- extract, CBD effect at 4 h, p = 0.022 vs vehicle
Procedure: SNI surgery was performed as previously described. In short, mice were anesthetized by intraperitoneal (i.p.) injections of 10 mg/kg Xylazine (AniMedica GmbH—a LIVISTO company, Senden, Germany) and 100 mg/kg Ketamine (AniMedica GmbH—a LIVISTO company, Senden, Germany). The skin on the lateral surface of the thigh was incised and the sciatic nerve exposed by separating the biceps femoris muscle through incision of the connective tissue without wounding the muscle. The common peroneal and tibial nerves were ligated with 4-0 Vicryl (Sh-1 plus; Raritan, NJ, USA) and a portion of 3 mm length was excised around the ligation site. Care was taken to avoid any mechanical damage to the sural nerve. After dissection, the muscle and skin were sutured using 4-0 Vicryl. Mice were left to recover at 37 °C until they regained consciousness.
The von Frey test was performed as previously described. In brief, mice were placed in a Plexiglas chamber on an elevated iron-mesh floor and allowed to habituate before testing. […] Withdrawal thresholds were calculated according to the up-and-down method. Von Frey results were analysed using repeated measure ANOVA.

[3] = Cannabinoid and metabolite concentrations in plasma, brain and spinal cord after single oral gavage (LC-MS/MS, non-compartmental PK); settings: mice
[4] = design: method as in PMID 12648025, PMID 17712819, PMID 30534073; settings: cited from earlier work
[5] = high dose, oral gavage (40 mg/kg THC+ extract, 20 mg/kg pure THC), plasma, brain and spinal cord

SMILES | brain–plasma ratio [1] | effect on mechanical withdrawal thresholds (von Frey) [2] | time of maximum CBD concentration ([3]; pure CBD compound, 1 and 20 mg/kg bodyweight, oral) | absorption rate of CBD compared with THC, brain ([3]; pure compounds, oral, brain) | absorption rate of CBD compared with THC, spinal cord ([3]; pure compounds, oral, spinal cord) | time detectable in organs including the brain after application [4] | time of peak concentration of OH-THC ([3]; high dose, oral (40 mg/kg THC+ extract, 20 mg/kg pure THC), brain tissue) | time at which Δ9-THC was detectable in all tissues [3, 5] | time of maximum Δ9-THC concentration [3, 5] | Δ9-THC concentrations in all sample types ([3]; low dose, oral gavage (2 mg/kg THC+ extract, 1 mg/kg pure THC), plasma, brain and spinal cord)
C=C(C)[C@@H]1CCC(C)=C[C@H]1c1c(O)cc(CCCCC)cc1O [CBD, cannabidiol] | 3.54 | alleviated mechanical hypersensitivity | 2 h | 2.8 fold | 1.7 fold | more than 24 h | – | – | – | –
CCCCCc1cc(O)c2c(c1)OC(C)(C)[C@@H]1CCC(C)=C[C@@H]21 [pure THC, Δ9-Tetrahydrocannabinol] | – | did not affect mechanical withdrawal thresholds | – | – | – | more than 24 h | 2 h | 1 h | 2 h | negligible concentrations
